Results reported in article PMC10981686, “Structural bases of inhibitory mechanism of CaV1.2 channel inhibitors” (Nature Communications, 2024).
“And” between values parts separate entries of the source, which are not always exact repeats. Identical values can stand only once. Like-named read-outs stand apart in the source and are kept apart here.

Experiments:
T-type CaV channels = conditions: cited from earlier work
[1] = system: L-type and T-type channels; parameters: method as in earlier work; conditions: result in words, 82 and references of Supplementary Table 2, cited from earlier work
N-type CaV channels = conditions: cited from earlier work
CaV1.2^Q1060M = target: T1, CaV1.2^Q1060M (Homo sapiens, UniProt Q13936, Q1060M); assay: whole-cell patch clamp inhibition curves in HEK293T cells, Q1060M mutant; type: cell-based
T1 construct: superfolder GFP (sfGFP) (C); Twin-Strep (C); expressed in transfected cells; host or cells: HEK293T
T1 sequence (Q13936 whole entry Q1060M): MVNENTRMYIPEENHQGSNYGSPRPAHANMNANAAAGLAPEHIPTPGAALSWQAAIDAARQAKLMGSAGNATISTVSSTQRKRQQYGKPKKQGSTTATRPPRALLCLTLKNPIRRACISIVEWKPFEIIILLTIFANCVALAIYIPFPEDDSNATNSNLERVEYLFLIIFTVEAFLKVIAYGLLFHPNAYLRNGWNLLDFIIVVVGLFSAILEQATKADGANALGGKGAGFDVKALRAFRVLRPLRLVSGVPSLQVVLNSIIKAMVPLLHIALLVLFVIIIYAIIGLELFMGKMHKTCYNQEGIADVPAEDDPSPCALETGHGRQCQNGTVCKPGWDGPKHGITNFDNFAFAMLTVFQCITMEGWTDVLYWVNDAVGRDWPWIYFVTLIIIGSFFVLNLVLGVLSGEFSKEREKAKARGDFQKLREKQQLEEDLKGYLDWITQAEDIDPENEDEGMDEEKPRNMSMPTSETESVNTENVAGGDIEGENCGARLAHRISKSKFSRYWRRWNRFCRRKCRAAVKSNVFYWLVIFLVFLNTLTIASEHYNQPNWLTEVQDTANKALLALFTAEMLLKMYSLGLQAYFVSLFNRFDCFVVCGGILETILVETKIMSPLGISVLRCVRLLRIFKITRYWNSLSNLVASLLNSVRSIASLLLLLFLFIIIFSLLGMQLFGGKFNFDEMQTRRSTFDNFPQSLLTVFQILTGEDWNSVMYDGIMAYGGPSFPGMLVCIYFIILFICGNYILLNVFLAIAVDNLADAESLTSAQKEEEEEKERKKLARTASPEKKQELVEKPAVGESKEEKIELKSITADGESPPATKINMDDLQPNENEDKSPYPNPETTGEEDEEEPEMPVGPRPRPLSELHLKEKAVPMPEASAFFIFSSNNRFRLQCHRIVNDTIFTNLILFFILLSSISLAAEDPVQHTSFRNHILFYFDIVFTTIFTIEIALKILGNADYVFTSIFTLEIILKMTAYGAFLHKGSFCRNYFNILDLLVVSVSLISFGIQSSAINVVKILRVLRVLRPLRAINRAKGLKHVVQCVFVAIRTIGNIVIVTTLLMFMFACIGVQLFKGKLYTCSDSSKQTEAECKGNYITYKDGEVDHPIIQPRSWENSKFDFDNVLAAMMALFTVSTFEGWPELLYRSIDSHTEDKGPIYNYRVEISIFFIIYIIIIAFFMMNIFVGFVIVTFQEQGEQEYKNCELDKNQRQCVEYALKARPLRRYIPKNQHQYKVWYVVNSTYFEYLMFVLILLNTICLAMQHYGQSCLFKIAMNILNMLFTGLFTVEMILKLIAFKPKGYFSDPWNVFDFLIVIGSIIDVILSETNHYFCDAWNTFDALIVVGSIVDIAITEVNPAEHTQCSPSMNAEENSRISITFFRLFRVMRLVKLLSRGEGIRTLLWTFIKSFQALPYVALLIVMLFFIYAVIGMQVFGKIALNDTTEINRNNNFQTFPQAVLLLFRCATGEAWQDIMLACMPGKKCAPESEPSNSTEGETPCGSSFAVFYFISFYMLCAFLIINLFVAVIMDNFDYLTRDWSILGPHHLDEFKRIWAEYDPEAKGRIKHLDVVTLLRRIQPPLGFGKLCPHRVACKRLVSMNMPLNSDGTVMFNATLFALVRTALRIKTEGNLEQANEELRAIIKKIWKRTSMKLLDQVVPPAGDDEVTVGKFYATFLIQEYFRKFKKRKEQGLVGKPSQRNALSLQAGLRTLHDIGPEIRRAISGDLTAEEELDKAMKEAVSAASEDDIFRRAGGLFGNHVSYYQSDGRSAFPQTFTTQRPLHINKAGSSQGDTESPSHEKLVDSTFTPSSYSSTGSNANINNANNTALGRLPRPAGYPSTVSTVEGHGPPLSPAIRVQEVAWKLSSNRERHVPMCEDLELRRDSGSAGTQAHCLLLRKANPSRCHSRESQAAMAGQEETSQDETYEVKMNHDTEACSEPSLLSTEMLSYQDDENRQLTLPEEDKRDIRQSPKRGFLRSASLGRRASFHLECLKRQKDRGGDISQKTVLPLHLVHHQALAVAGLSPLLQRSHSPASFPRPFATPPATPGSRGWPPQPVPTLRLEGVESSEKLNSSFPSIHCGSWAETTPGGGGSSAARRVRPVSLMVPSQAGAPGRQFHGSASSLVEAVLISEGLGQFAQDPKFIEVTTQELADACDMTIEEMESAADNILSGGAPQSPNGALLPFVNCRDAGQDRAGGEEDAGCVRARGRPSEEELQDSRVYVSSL
T1 sequence (P54289 25-946 partner limits assumed): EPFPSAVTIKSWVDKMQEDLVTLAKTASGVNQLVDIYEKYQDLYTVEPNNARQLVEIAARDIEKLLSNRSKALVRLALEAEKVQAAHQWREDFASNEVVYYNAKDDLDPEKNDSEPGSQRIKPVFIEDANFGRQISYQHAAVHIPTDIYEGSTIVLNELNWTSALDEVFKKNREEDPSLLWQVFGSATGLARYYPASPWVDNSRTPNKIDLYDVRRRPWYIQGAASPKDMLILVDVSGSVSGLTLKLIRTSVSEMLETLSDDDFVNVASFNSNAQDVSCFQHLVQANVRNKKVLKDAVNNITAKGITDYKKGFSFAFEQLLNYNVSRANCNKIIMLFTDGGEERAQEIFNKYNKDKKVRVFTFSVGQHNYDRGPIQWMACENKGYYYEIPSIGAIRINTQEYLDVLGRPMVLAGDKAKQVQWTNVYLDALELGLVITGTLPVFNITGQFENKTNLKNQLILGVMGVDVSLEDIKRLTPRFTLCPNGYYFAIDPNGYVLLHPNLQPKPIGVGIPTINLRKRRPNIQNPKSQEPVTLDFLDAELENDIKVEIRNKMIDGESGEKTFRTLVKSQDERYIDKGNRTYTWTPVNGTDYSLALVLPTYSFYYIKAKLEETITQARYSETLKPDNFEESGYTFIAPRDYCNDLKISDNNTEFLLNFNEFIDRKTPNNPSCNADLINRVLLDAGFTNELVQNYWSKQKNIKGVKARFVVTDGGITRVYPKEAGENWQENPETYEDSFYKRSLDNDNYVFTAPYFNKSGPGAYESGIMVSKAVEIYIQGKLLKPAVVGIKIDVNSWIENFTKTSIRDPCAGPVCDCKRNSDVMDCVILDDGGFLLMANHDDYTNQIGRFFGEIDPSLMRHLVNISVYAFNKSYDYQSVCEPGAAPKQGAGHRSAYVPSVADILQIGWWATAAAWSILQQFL
T1 sequence (P54289 947-1103 partner limits assumed): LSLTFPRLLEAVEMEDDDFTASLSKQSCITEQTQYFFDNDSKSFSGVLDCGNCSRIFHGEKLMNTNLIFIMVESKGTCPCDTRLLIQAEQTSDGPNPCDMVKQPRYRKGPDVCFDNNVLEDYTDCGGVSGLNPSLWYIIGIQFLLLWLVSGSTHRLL
T1 sequence (Q08289 1-606 isoform Q08289-3 partner): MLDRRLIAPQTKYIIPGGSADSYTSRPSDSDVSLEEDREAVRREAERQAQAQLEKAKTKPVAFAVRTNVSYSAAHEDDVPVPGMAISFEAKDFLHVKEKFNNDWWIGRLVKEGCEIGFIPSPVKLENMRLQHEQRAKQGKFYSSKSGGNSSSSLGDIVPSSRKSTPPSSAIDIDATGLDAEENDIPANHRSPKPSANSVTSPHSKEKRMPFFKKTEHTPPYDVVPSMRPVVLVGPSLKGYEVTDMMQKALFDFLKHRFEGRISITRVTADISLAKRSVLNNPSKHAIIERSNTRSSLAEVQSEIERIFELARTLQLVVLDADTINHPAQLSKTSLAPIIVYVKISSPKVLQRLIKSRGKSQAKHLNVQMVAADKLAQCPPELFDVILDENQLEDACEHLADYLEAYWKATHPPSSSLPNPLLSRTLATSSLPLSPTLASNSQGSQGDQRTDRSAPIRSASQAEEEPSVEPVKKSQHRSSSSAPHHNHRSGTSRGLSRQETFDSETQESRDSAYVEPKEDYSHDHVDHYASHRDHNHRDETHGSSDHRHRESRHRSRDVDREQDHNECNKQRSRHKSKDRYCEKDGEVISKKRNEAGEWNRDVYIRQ
Experimental: (§1) Whole-cell voltage-clamp recordings were carried out using human embryonic kidney 293 T (HEK293T) cells, which were cultured in Dulbecco’s Modified Eagle Medium (DMEM, Gibco) supplemented with 10% (v/v) fetal bovine serum (FBS, PAN-Biotech) at 37 °C supplemented with 5% CO2. Three distinct recombinant baculoviruses encoding CaV1.2, α2δ1, and β2 were used to coinfect HEK293T cells once they reached a confluence of 40–60%. After 8−12 h, transfected cells were re-plated on 8 × 8 mm coverslips, and sodium butyrate was added to the culture at a final concentration of 0.5−2.5 mM to improve protein expression. Whole-cell recordings of activation curves were performed from isolated GFP-positive HEK293T cells at 20−28 h after transfection with recombinant baculoviruses. […] Pipettes were pulled to obtain final resistances of 2−6 MΩ with a Sutter P-97 puller and heat-polished before employment. […] The series resistance was not compensated in these experiments. […] Signals were digitized at 10 kHz and low-pass filtered at 2 kHz. Data were analyzed with Clampfit 10.7.
(§2) To measure the inhibition curves, 2 μg endotoxin-free plasmids of wild-type (WT) or mutants generated by PCR expressing CaV1.2, α2δ1, and β2 were transiently transfected using 1.2 μg Lipofectamine 2000 Reagent (Thermo Fisher Scientific). For curves determining, re-plated cells were held at −100 mV, and then depolarized at +10 mV to elicit inward currents. To ensure stable currents during measurement, a series of traces were pre-recorded at a specific time interval without drug application for each construct. […] Perfusions applied using a gravity-driven system. […] Data analyses were performed using Origin 2022 (Origin Lab Corporation), GraphPad Prism 9 (GraphPad Software, Inc.) and Adobe illustrator 2018.

[2] = target: T2, CaV1.2^WT (human CaV1.2 with α2δ1 and β2) (Homo sapiens, UniProt Q13936); assay: whole-cell patch clamp inhibition curves in HEK293T cells, wild-type CaV1.2; type: cell-based; conditions: for logIC50 (best-fit value): X values in μM
T2 construct: superfolder GFP (sfGFP) (C); Twin-Strep (C); expressed in transfected cells; host or cells: HEK293T
Experimental: as §1, §2

CaV1.2^T1056Y = target: T3, CaV1.2^T1056Y (Homo sapiens, UniProt Q13936, T1056Y); assay: whole-cell patch clamp inhibition curves in HEK293T cells, T1056Y mutant; type: cell-based
T3 construct: superfolder GFP (sfGFP) (C); Twin-Strep (C); expressed in transfected cells; host or cells: HEK293T
Experimental: as §1, §2

CaV1.2^Q1060F = target: T4, CaV1.2^Q1060F (Homo sapiens, UniProt Q13936, Q1060F); assay: whole-cell patch clamp inhibition curves in HEK293T cells, Q1060F mutant; type: cell-based
T4 construct: superfolder GFP (sfGFP) (C); Twin-Strep (C); expressed in transfected cells; host or cells: HEK293T
Experimental: as §1, §2

CaV1.2^N1179W = target: T5, CaV1.2^N1179W (Homo sapiens, UniProt Q13936, N1179W); assay: whole-cell patch clamp inhibition curves in HEK293T cells, N1179W mutant; type: cell-based
T5 construct: superfolder GFP (sfGFP) (C); Twin-Strep (C); expressed in transfected cells; host or cells: HEK293T
Experimental: as §1, §2

CaV1.2^N741W = target: T6, CaV1.2^N741W (Homo sapiens, UniProt Q13936, N741W); assay: whole-cell patch clamp inhibition curves in HEK293T cells, N741W mutant; type: cell-based
T6 construct: superfolder GFP (sfGFP) (C); Twin-Strep (C); expressed in transfected cells; host or cells: HEK293T
T6 sequence (Q13936 whole entry N741W): as the sequence (Q13936 whole entry Q1060M) above, with N741W, M1060Q counted along it
T6 sequence (P54289 25-946 partner limits assumed): as the sequence (P54289 25-946 partner limits assumed) above
T6 sequence (P54289 947-1103 partner limits assumed): as the sequence (P54289 947-1103 partner limits assumed) above
T6 sequence (Q08289 1-606 isoform Q08289-3 partner): as the sequence (Q08289 1-606 isoform Q08289-3 partner) above
Experimental: as §1, §2

[3] = system: CaV1.2 with substitutions at positions T1056 and Q1060; parameters: method as in PMID 9006896; conditions: result in words; cited from earlier work

For `COCCOC(=O)C1=C(C)NC(C)=C(C(=O)OC/C=C/c2ccccc2)C1c1cccc([N+](=O)[O-])c1` (stereo not drawn) [cilnidipine, Cilnidipine], the “inhibition of T-type channels” value (T-type CaV channels; result in words) is given as “cannot inhibit T-type channels” and the “selectivity class for L-type and T-type channels” value (shortened to “selectivity class”) [1] is given as “L-type selective”.

In the case of `COC(=O)C1=C(C)NC(C)=C(C(=O)OCCN2CCN(C(c3ccccc3)c3ccccc3)CC2)C1c1cccc([N+](=O)[O-])c1` (stereo not drawn) [manidipine, Manidipine], the “selectivity class” value [1] is given as “L/T-type selective” and the “selectivity class” value ([1]; listed as Manidipine) is given as “non-selective”.

In the case of `COC(=O)C1=C(C)NC(C)=C(C(=O)OC2CCCN(Cc3ccccc3)C2)C1c1cccc([N+](=O)[O-])c1` (stereo not drawn) [benidipine], the IC50 (N-type CaV channels) is given as about 35 µM, the IC50 (T-type CaV channels) is given as 11 µM and ~11 µM and the remaining activity at 0.01 µM (CaV1.2^Q1060M; HEK-293T, benidipine 0.01 μM, Q1060M, single experiments, Supplementary Fig. 7c source data, read-out: normalized current (I/Imax)) is given as 97%. For the same molecule, the remaining activity at 0.1 µM (CaV1.2^Q1060M; HEK-293T, benidipine 0.1 μM, Q1060M, single experiments, Supplementary Fig. 7c source data, read-out: normalized current (I/Imax)) was 88.7%, the remaining activity at 1 µM (CaV1.2^Q1060M; HEK-293T, benidipine 1 μM, Q1060M, single experiments, Supplementary Fig. 7c source data, read-out: normalized current (I/Imax)) was 73.2% and the remaining activity at 10 µM (CaV1.2^Q1060M; HEK-293T, benidipine 10 μM, Q1060M, single experiments, Supplementary Fig. 7c source data, read-out: normalized current (I/Imax)) was 46.7%. For the same molecule, the remaining activity at 100 µM (CaV1.2^Q1060M; HEK-293T, benidipine 100 μM, Q1060M, single experiments, Supplementary Fig. 7c source data, read-out: normalized current (I/Imax)) was 20.1%, the IC50 (CaV1.2^Q1060M; IC50 of benidipine on CaV1.2^Q1060M, held at -100 mV, depolarized at +10 mV every 1 min, n = 4) was 7.5 µM and the “HillSlope (best-fit value)” value (CaV1.2^Q1060M; benidipine, Q1060M) was -0.4107. For the same molecule, the “logIC50 (best-fit value)” value (CaV1.2^Q1060M; benidipine, Q1060M, X values in μM) was 0.8728, the IC50 (CaV1.2^Q1060M; benidipine, Q1060M, variable slope fit, X values in μM per sheet Supplementary Figure 7c, read-out: IC50 (best-fit value)) was 7.46 µM and the remaining activity at 0.01 µM ([2]; HEK-293T, benidipine 0.01 μM, WT, single experiments, Supplementary Fig. 7c source data, read-out: normalized current (I/Imax)) was 91%. For the same molecule, the remaining activity at 1 µM ([2]; HEK-293T, benidipine 1 μM, WT, single experiments, Supplementary Fig. 7c source data, read-out: normalized current (I/Imax)) was 27.4%, the CaV1.2 current reduction ([2]; benidipine 100 μM) was 90% and the “HillSlope (best-fit value)” value ([2]; benidipine, WT) was -0.5499. For the same molecule, the “logIC50 (best-fit value)” value ([2]; benidipine, WT) was -0.6638, the remaining activity at 0.01 µM (CaV1.2^T1056Y; HEK-293T, benidipine 0.01 μM, T1056Y, single experiments, Supplementary Fig. 7c source data, read-out: normalized current (I/Imax)) was 99.8% and the remaining activity at 0.1 µM (CaV1.2^T1056Y; HEK-293T, benidipine 0.1 μM, T1056Y, single experiments, Supplementary Fig. 7c source data, read-out: normalized current (I/Imax)) was 91.4%. The remaining activity at 1 µM (CaV1.2^T1056Y; HEK-293T, benidipine 1 μM, T1056Y, single experiments, Supplementary Fig. 7c source data, read-out: normalized current (I/Imax)) was 85.3%, the remaining activity at 10 µM (CaV1.2^T1056Y; HEK-293T, benidipine 10 μM, T1056Y, single experiments, Supplementary Fig. 7c source data, read-out: normalized current (I/Imax)) was 67.2% and the “HillSlope (best-fit value)” value (CaV1.2^T1056Y; benidipine, T1056Y) was -0.3204. For the same molecule, the “logIC50 (best-fit value)” value (CaV1.2^T1056Y; benidipine, T1056Y, X values in μM) was 2.427, the IC50 (CaV1.2^T1056Y; held at -100 mV, depolarized at +10 mV every 1 min, n = 4) was over 100 µM and the remaining activity at 0.01 µM (CaV1.2^Q1060F; HEK-293T, benidipine 0.01 μM, Q1060F, single experiments, Supplementary Fig. 7c source data, read-out: normalized current (I/Imax)) was 93.9%. The remaining activity at 0.1 µM (CaV1.2^Q1060F; HEK-293T, benidipine 0.1 μM, Q1060F, single experiments, Supplementary Fig. 7c source data, read-out: normalized current (I/Imax)) was 88.2%, the remaining activity at 1 µM (CaV1.2^Q1060F; HEK-293T, benidipine 1 μM, Q1060F, single experiments, Supplementary Fig. 7c source data, read-out: normalized current (I/Imax)) was 81.9% and the IC50 (CaV1.2^Q1060F; IC50 of benidipine on CaV1.2^Q1060F, held at -100 mV, depolarized at +10 mV every 1 min, n = 4) was 11.7 µM. For the same molecule, the “HillSlope (best-fit value)” value (CaV1.2^Q1060F; benidipine, Q1060F) was -0.3921, the “logIC50 (best-fit value)” value (CaV1.2^Q1060F; benidipine, Q1060F, X values in μM) was 1.07 and the IC50 (CaV1.2^Q1060F; benidipine, Q1060F, variable slope fit, X values in μM per sheet Supplementary Figure 7c, read-out: IC50 (best-fit value)) was 11.7 µM. The “selectivity class” value [1] was “L/T-type selective” and the “selectivity class” value ([1]; listed as Benidipine) was “non-selective”.

For `CCOC(=O)C1=C(C)NC(C)=C(C(=O)OC)C1c1cccc([N+](=O)[O-])c1` (stereo not drawn) [nitrendipine, Nitrendipine], the “selectivity class” value [1] is listed as “L-type selective”.

For `COCCOC(=O)C1=C(C)NC(C)=C(C(=O)OC(C)C)C1c1cccc([N+](=O)[O-])c1` (stereo not drawn) [nimodipine, Nimodipine], the “preference among T-type channels” value (T-type CaV channels; CaV3.1, CaV3.2, CaV3.3) is given as “preference for inhibiting CaV3.2 and CaV3.3 over CaV3.1” and the “selectivity class” value [1] is given as “non-selective”.

For `COc1ccc2cc1Oc1ccc(cc1)C[C@H]1c3cc(c(OC)cc3CCN1C)Oc1c(OC)c(OC)cc3c1[C@H](C2)N(C)CC3` [tetrandrine], the remaining activity at 0.001 µM (CaV1.2^N1179W; HEK-293T, tetrandrine 0.001 μM, N1179W, single experiments, Fig. 3f source data, read-out: normalized current (I/Imax)) was 86.3%, the IC50 (CaV1.2^N1179W; held at -100 mV, depolarized at +10 mV every 20 s, n = 10) was 0.0418 µM and the “HillSlope (best-fit value)” value (CaV1.2^N1179W; tetrandrine, N1179W) was -0.3696. For the same molecule, the “logIC50 (best-fit value)” value (CaV1.2^N1179W; tetrandrine, N1179W, X values in μM) was -1.379, the remaining activity at 0.001 µM ([2]; HEK-293T, tetrandrine 0.001 μM, WT, single experiments, Fig. 3f source data, read-out: normalized current (I/Imax)) was 84.9% and the IC50 ([2]; IC50 of tetrandrine on CaV1.2^WT, held at -100 mV, depolarized at +10 mV every 20 s, n = 10) was ~0.0142 µM and 0.0142 µM. For the same molecule, the CaV1.2 current reduction ([2]; tetrandrine 10 μM) was 90%, the “HillSlope (best-fit value)” value ([2]; tetrandrine, WT) was -0.4914 and the “logIC50 (best-fit value)” value ([2]; tetrandrine, WT) was -1.849. For the same molecule, the remaining activity at 0.001 µM (CaV1.2^N741W; HEK-293T, tetrandrine 0.001 μM, N741W, single experiments, Fig. 3f source data, read-out: normalized current (I/Imax)) was 90.1%, the remaining activity at 0.1 µM (CaV1.2^N741W; HEK-293T, tetrandrine 0.1 μM, N741W, single experiments, Fig. 3f source data, read-out: normalized current (I/Imax)) was 49.4% and the remaining activity at 10 µM (CaV1.2^N741W; HEK-293T, tetrandrine 10 μM, N741W, single experiments, Fig. 3f source data, read-out: normalized current (I/Imax)) was 22.8%. The IC50 (CaV1.2^N741W; IC50 of tetrandrine on CaV1.2^N741W, held at -100 mV, depolarized at +10 mV every 20 s, n = 10) was 0.0713 µM, the “HillSlope (best-fit value)” value (CaV1.2^N741W; tetrandrine, N741W) was -0.3074 and the “logIC50 (best-fit value)” value (CaV1.2^N741W; tetrandrine, N741W, X values in μM) was -1.147. The IC50 (CaV1.2^N741W; tetrandrine, N741W, variable slope fit, bottom 0, top 1, X values in μM per sheet Figure 3f, read-out: IC50 (best-fit value)) was 0.0712 µM.

In the case of `CC1=C(C(=O)OC(C)C)[C@@H](c2cccc3nonc23)C([N+](=O)[O-])=C(C)N1` [R202-791], the “effect of substitutions at T1056 and Q1060 on sensitivity of CaV1.2 to the drug” value [3] is listed as “almost abolished the sensitivity”.

In the case of `CCOC(=O)C1=C(C)NC(C)=C(C(=O)OC)C1c1cccc(Cl)c1Cl` (stereo not drawn) [felodipine, Felodipine], the “selectivity class” value [1] is given as “L-type selective”.

For `COC(=O)C1=C(C)NC(C)=C(C(=O)OC)C1c1ccccc1[N+](=O)[O-]` [nifedipine], the “sensitivity of N-type CaV channels” value (N-type CaV channels; result in words) is given as “no sensitivity”, the “sensitivity of T-type CaV channels” value (T-type CaV channels; result in words) is given as “no sensitivity” and the “selectivity class” value [1] is given as “L-type selective”.
